% of control and % of inhibition data for four compounds are collected here from ChEMBL document CHEMBL5465560, “Selectivity Literature for EUbOPEN Chemogenomic Library” (2024).

The target in assay [1] is Angiopoietin-1 receptor (Homo sapiens) (UniProt Q02763). Briefly: (§1) Selectivity interaction (Kinase panel (Z-LYTE Assay)) EUB0001632a TEK. The settings on record: at 10 µM.
For assay [2], the system named is Angiopoietin-1 receptor (Homo sapiens), Q02763 [Y897S]. Described as §1. The settings on record: at 10 µM.
Sequence of Angiopoietin-1 receptor (Homo sapiens), Q02763 [Y897S] (Q02763 whole entry Y897S): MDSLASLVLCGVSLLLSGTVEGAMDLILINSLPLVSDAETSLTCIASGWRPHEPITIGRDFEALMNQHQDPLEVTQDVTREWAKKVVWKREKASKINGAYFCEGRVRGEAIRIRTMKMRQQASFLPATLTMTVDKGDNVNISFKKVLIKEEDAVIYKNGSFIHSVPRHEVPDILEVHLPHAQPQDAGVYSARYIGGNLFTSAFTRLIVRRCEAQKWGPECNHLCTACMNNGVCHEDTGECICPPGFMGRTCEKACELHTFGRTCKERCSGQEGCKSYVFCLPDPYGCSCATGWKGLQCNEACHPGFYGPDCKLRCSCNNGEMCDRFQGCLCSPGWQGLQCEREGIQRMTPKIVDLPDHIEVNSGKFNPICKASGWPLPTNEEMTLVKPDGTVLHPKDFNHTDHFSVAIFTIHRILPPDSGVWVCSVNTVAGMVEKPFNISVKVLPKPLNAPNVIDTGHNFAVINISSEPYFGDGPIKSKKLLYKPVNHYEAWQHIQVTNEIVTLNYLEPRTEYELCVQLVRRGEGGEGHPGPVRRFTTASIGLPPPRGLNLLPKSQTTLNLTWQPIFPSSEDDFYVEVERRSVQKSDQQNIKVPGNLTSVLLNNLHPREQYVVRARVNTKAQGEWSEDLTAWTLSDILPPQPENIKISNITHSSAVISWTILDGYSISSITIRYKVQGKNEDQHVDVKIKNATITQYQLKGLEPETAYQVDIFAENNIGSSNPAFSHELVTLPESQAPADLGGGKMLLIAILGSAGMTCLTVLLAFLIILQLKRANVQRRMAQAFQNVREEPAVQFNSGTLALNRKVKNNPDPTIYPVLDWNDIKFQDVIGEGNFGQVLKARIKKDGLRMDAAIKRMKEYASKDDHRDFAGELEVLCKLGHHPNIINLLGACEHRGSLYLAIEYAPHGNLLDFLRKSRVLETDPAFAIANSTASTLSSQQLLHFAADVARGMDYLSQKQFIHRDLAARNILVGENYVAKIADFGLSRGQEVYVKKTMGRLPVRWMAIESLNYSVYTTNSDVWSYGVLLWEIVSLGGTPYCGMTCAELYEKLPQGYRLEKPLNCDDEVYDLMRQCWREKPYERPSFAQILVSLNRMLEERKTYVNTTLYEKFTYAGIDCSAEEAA
Assay [3] deals with T1, Kinase suppressor of Ras 2 (Homo sapiens) (UniProt Q6VAB6).
T1 sequence (whole entry): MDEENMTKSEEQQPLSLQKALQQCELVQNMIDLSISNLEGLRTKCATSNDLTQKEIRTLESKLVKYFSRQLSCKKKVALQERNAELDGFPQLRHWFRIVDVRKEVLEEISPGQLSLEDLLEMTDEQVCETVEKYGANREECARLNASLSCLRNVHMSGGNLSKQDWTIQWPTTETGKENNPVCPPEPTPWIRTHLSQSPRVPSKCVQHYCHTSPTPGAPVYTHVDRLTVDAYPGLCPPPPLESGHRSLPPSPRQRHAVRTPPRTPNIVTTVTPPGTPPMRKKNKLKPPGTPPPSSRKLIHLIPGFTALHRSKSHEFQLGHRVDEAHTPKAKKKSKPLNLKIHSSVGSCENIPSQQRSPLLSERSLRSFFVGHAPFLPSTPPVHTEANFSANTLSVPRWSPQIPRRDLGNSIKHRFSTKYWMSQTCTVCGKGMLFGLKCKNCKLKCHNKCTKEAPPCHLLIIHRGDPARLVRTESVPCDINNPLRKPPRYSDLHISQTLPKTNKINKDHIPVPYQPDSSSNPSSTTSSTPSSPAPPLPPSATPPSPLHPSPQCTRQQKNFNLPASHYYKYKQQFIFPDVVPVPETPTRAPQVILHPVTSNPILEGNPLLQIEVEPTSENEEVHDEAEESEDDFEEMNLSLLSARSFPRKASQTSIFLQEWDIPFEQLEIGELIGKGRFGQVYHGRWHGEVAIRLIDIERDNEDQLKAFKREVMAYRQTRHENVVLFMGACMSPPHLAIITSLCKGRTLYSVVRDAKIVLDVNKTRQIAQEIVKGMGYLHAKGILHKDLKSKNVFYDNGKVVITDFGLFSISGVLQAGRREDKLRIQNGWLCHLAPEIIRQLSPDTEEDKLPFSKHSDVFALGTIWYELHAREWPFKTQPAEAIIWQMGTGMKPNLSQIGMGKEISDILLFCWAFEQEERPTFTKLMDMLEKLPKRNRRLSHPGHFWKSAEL
The experiment in a line: Selectivity interaction (ActivX KiNativ screen (ex vivo kinase selectivity in human PBMCs)) EUB0001619a KSR2. In kind it is cell-based. Conditions: PBMC, at 1 µM.

Assay [4] has as its target T2, Serine/threonine-protein kinase D1 (Homo sapiens) (UniProt Q15139).
T2 sequence (whole entry): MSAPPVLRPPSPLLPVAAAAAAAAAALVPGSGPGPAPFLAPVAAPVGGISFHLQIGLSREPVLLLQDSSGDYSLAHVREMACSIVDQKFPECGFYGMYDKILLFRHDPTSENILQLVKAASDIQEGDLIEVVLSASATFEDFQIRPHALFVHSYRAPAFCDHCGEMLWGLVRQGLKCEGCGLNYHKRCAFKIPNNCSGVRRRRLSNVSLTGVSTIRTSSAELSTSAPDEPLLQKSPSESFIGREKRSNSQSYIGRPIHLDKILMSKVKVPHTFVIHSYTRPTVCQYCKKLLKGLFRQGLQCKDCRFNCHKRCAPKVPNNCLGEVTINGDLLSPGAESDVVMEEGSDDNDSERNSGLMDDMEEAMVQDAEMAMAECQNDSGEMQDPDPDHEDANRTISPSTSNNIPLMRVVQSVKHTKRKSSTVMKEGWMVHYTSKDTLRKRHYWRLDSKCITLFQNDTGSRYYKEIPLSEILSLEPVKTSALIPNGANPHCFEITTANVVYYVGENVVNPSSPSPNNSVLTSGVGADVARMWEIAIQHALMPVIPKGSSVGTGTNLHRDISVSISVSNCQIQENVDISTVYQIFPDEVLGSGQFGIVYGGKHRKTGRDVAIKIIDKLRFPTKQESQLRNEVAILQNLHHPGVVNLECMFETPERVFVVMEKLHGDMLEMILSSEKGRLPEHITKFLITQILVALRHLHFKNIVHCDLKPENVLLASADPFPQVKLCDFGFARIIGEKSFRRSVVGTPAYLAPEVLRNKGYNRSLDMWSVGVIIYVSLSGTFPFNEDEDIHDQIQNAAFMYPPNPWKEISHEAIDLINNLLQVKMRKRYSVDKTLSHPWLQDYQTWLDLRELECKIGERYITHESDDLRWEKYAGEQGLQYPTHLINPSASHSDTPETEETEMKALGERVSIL
The experiment in a line: Selectivity interaction (Kinase panel (Invitrogen)) EUB0000639a PRKD1. Conditions: at 200 nM.

For assay [5], the target named is STE20-like serine/threonine-protein kinase (Homo sapiens, UniProt Q9H2G2). The experiment in a line: Selectivity interaction (Ambit KINOMEscan and KiNATiv profiling in Jurkat cells) EUB0000090b SLK. The settings on record: at 1 µM. In kind it is cell-based.
Sequence of STE20-like serine/threonine-protein kinase (Q9H2G2 whole entry, looked up): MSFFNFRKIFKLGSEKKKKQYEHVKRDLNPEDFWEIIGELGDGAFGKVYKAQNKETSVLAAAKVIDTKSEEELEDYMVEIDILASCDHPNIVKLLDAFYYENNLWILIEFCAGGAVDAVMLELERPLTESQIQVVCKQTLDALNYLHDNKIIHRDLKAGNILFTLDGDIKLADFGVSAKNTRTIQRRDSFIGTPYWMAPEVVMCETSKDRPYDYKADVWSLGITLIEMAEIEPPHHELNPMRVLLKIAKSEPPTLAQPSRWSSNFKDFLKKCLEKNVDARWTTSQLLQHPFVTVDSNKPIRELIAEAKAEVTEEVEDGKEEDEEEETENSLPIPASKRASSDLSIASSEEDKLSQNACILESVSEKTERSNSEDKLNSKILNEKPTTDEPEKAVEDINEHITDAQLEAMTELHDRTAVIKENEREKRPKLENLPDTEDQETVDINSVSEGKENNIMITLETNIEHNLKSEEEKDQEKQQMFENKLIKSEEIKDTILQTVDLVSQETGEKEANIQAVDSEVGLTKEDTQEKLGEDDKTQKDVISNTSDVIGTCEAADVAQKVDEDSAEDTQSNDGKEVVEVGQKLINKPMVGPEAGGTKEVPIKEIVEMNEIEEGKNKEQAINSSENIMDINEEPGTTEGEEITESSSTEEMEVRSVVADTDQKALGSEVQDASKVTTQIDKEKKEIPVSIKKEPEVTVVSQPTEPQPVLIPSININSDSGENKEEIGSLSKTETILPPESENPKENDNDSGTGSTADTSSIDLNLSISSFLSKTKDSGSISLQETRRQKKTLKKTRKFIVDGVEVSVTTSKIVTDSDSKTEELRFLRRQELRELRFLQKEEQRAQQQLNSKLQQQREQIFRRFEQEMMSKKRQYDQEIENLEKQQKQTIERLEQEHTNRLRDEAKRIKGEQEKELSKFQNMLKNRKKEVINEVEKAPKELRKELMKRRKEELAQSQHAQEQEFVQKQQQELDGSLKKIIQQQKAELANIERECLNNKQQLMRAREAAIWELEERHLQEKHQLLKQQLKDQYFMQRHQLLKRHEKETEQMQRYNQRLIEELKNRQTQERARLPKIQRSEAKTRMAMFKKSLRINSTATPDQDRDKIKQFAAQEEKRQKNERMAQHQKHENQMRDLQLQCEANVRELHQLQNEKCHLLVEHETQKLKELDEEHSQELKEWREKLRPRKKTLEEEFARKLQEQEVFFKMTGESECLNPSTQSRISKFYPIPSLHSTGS

Sequence of Angiopoietin-1 receptor (Homo sapiens) (Q02763 whole entry): as the sequence (Q02763 whole entry Y897S) above, with S897Y counted along it

For the compound `Cn1cc(-n2cnc3c(NCc4nc5cc(Cl)c(Cl)cc5[nH]4)nc(N4CCOCC4)nc32)cn1`, the % of control is -5.98% in assay [1] and 0.243% in assay [2].
For the compound `N#Cc1cccc(-c2c[nH]c3ncnc(N4CCOCC4)c23)c1`, the % of inhibition in assay [3] is 12%.
On to `CC[C@@H]1[C@H](F)C(=O)N[C@@H]1COc1nccc2cc(C(N)=O)c(OC)cc12` [ZIMLOVISERTIB], for which the % of inhibition in assay [4] worked out at 5.76%.
As for `CN(C)C/C=C/C(=O)Nc1ccc(C(=O)N2CCCC(Nc3ncc(Cl)c(-c4c[nH]c5ccccc45)n3)C2)cc1` (stereo not given), the % of control in assay [5] came out at 70%.
